Columns and labels:
[1] = test system: RSV (RSV A2 ECACC, 0709161v); test: RSV plaque reduction assay; assay type: cell-based, respiratory syncytial virus; details: human respiratory syncytial virus, HepG2, read-out: RSV A2 Plaque EC50, RSV A2 in Hep-G2 cells; mean of at least two experiments unless noted (n = 1)
Outline: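 Hep-G2 monolayers infected with 100 PFU/well RSV A2 premixed with eight serial compound dilutions (2 h, 37° C.), then kept 2 days under CMC overlay with compound in DMEM/2% FBS. Plaques immunostained (HRP/TrueBlue) and counted; % infection versus virus control gives EC50, mean of at least two experiments, rounded.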

cell toxicity CC50 = assay type: cell-based; details: human; Hep-G2 cells; mean of at least two experiments; read-out: Cell Cytotoxicity CC50

| SMILES | EC50 [1] [µM] | CC50 (cell toxicity CC50) [µM] |
| --- | --- | --- |
| C[C@@H]1CCn2nc(-c3cc(S(C)(=O)=O)ccc3F)c(C(=O)N[C@H]3N=C(c4ccccc4)c4cccc(F)c4NC3=O)c2O1 [Example 198, (5R)-2-(2-Fluoro-5-methylsulfonylphenyl)-N-[(3S)-9-fluoro-2-oxo-5-phenyl-1,3-dihydro-1,4-benzodiazepin-3-yl]-5-methyl-6,7-dihydro-5H-pyrazolo[5,1-b][1,3]oxazine-3-carboxamide] | 0.035 | > 25 |
| CC(C)n1cc(-c2nn3c(c2C(=O)N[C@H]2N=C(c4ccccc4)c4cccc(F)c4NC2=O)OCCC3)cn1 [Example 148, N-[(3S)-9-fluoro-2-oxo-5-phenyl-1,3-dihydro-1,4-benzodiazepin-3-yl]-2-(1-propan-2-ylpyrazol-4-yl)-6,7-dihydro-5H-pyrazolo[5,1-b][1,3]oxazine-3-carboxamide] | 0.072 | > 25 |
| O=C(N[C@H]1N=C(c2ccccc2)c2cccc(F)c2NC1=O)c1c(-c2cccnc2)nn2c1OCCC2 [Example 17, N-[(3S)-9-Fluoro-2-oxo-5-phenyl-1,3-dihydro-1,4-benzodiazepin-3-yl]-2-pyridin-3-yl-6,7-dihydro-5H-pyrazolo[5,1-b][1,3]oxazine-3-carboxamide] | 0.18 | > 25 |
| CCc1ccc(-c2nn3c(c2C(=O)N[C@H]2N=C(c4ccccc4)c4cccc(F)c4NC2=O)OCC(CO)C3)cn1 (stereo partly drawn) [Example 133, 2-(6-Ethylpyridin-3-yl)-N-[(3S)-9-fluoro-2-oxo-5-phenyl-1,3-dihydro-1,4-benzodiazepin-3-yl]-6-(hydroxymethyl)-6,7-dihydro-5H-pyrazolo[5,1-b][1,3]oxazine-3-carboxamide] | 0.22 | > 25 |
| Cc1ccc(-c2nn3c(c2C(=O)N[C@H]2N=C(c4ccccc4)c4cccc(F)c4NC2=O)O[C@H](C)CC3)cn1 [Example 77, (5R)-5-Methyl-2-(6-methylpyridin-3-yl)-N-[(3S)-9-fluoro-2-oxo-5-phenyl-1,3-dihydro-1,4-benzodiazepin-3-yl]-6,7-dihydro-5H-pyrazolo[5,1-b][1,3]oxazine-3-carboxamide] | 0.159 | > 25 |
| O=C(N[C@H]1N=C(c2ccccc2)c2cccc(F)c2NC1=O)c1c(-c2ccccc2F)nn2c1OCC(O)C2 (stereo partly drawn) [Example 160, 2-(2-Fluorophenyl)-6-hydroxy-N-[(3S)-9-fluoro-2-oxo-5-phenyl-1,3-dihydro-1,4-benzodiazepin-3-yl]-6,7-dihydro-5H-pyrazolo[5,1-b][1,3]oxazine-3-carboxamide] | 0.148 | > 25 |
| O=C(N[C@H]1N=C(c2ccccc2)c2cccc(F)c2NC1=O)c1c(-c2cnn(C3CCOCC3)c2)nn2c1OCCC2 [Example 152, N-[(3S)-9-Fluoro-2-oxo-5-phenyl-1,3-dihydro-1,4-benzodiazepin-3-yl]-2-[1-(oxan-4-yl)pyrazol-4-yl]-6,7-dihydro-5H-pyrazolo[5,1-b][1,3]oxazine-3-carboxamide] | 0.084 | > 25 |
| O=C(N[C@H]1N=C(c2ccccc2)c2ccccc2NC1=O)c1c(-c2c(F)cccc2F)nn2c1OC(CO)CC2 (single isomer, unassigned) [Example 188-1, (5R*)-2-(2,6-Difluorophenyl)-5-(hydroxymethyl)-N-[(3S)-2-oxo-5-phenyl-1,3-dihydro-1,4-benzodiazepin-3-yl]-6,7-dihydro-5H-pyrazolo[5,1-b][1,3]oxazine-3-carboxamide] | 0.141 | > 25 |
| C[C@H]1CCn2nc(-c3cnn(C4CCOCC4)c3)c(C(=O)N[C@H]3N=C(c4ccccc4)c4cccc(F)c4NC3=O)c2O1 [Example 156, (5S)-N-[(3S)-9-fluoro-2-oxo-5-phenyl-1,3-dihydro-1,4-benzodiazepin-3-yl]-5-methyl-2-[1-(oxan-4-yl)pyrazol-4-yl]-6,7-dihydro-5H-pyrazolo[5,1-b][1,3]oxazine-3-carboxamide] | 0.039 | > 25 |
| CC(C)Nc1ccc(-c2nn3c(c2C(=O)N[C@H]2N=C(c4ccccc4)c4cccc(F)c4NC2=O)O[C@H](C)CC3)c(F)n1 [Example 30, (5R)-N-[(3S)-9-fluoro-2-oxo-5-phenyl-1,3-dihydro-1,4-benzodiazepin-3-yl]-2-[2-fluoro-6-(propan-2-ylamino)pyridin-3-yl]-5-methyl-6,7-dihydro-5H-pyrazolo[5,1-b][1,3]oxazine-3-carboxamide] | 0.016 | > 25 |
| O=C(N[C@H]1N=C(c2ccccc2)c2ccccc2NC1=O)c1c(-c2cnn(CC(F)(F)F)c2)nn2c1OCCC2 [Example 151, N-[(3S)-2-oxo-5-phenyl-1,3-dihydro-1,4-benzodiazepin-3-yl]-2-[1-(2,2,2-trifluoroethyl)pyrazol-4-yl]-6,7-dihydro-5H-pyrazolo[5,1-b][1,3]oxazine-3-carboxamide] | 0.108 | > 25 |
| COC1CN(c2ccc(-c3nn4c(c3C(=O)N[C@H]3N=C(c5ccccc5)c5cccc(F)c5NC3=O)O[C@H](C)CC4)cn2)C1 [Example 144, (5R)-N-[(3S)-9-fluoro-2-oxo-5-phenyl-1,3-dihydro-1,4-benzodiazepin-3-yl]-2-[6-(3-methoxyazetidin-1-yl)pyridin-3-yl]-5-methyl-6,7-dihydro-5H-pyrazolo[5,1-b][1,3]oxazine-3-carboxamide] | 0.101 | > 25 |
| C[C@@H]1CCn2nc(-c3cnn(C4CC4)c3)c(C(=O)N[C@H]3N=C(c4ccccc4)c4cccc(F)c4NC3=O)c2O1 [Example 126, (5R)-2-(1-Cyclopropylpyrazol-4-yl)-N-[(3S)-9-fluoro-2-oxo-5-phenyl-1,3-dihydro-1,4-benzodiazepin-3-yl]-5-methyl-6,7-dihydro-5H-pyrazolo[5,1-b][1,3]oxazine-3-carboxamide] | 0.054 | > 25 |
| O=C(N[C@H]1N=C(c2ccccc2)c2cccc(F)c2NC1=O)c1c(-c2ccccc2F)nn2c1S(=O)(=O)CCC2 [Example 33, 2-(2-Fluorophenyl)-N-[(3S)-9-fluoro-2-oxo-5-phenyl-2,3-dihydro-1H-1,4-benzodiazepin-3-yl]-4,4-dioxo-5H,6H,7H-4λ^6-pyrazolo[3,2-b][1,3]thiazine-3-carboxamide] | 0.474 | > 25 |
| O=C(N[C@H]1N=C(c2ccccc2)c2ccccc2NC1=O)c1c(-c2ccc(NC3CC3)nc2F)nn2c1OCCC2 [Example 44, 2-[6-(Cyclopropylamino)-2-fluoropyridin-3-yl]-N-[(3S)-2-oxo-5-phenyl-1,3-dihydro-1,4-benzodiazepin-3-yl]-6,7-dihydro-5H-pyrazolo[5,1-b][1,3]oxazine-3-carboxamide] | 0.055 | > 25 |
| CCc1ccc(-c2nn3c(c2C(=O)N[C@H]2N=C(c4ccccc4)c4cccc(F)c4NC2=O)OCC2(CC2)C3)cn1 [Example 181, 2-(6-Ethylpyridin-3-yl)-N-[(3S)-9-fluoro-2-oxo-5-phenyl-1,3-dihydro-1,4-benzodiazepin-3-yl]spiro[5,7-dihydropyrazolo[5,1-b][1,3]oxazine-6,1′-cyclopropane]-3-carboxamide] | 0.042 | > 25 |
| O=C(N[C@H]1N=C(c2ccccc2)c2ccccc2NC1=O)c1c(-c2ccccc2)nn2c1OCC1(COC1)C2 [Example 28, N-[(3S)-2-oxo-5-phenyl-1,3-dihydro-1,4-benzodiazepin-3-yl]-2-phenylspiro[5,7-dihydropyrazolo[5,1-b][1,3]oxazine-6,3′-oxetane]-3-carboxamide] | 0.076 | > 25 |
| C[C@@H]1CCn2nc(Nc3ccccc3)c(C(=O)N[C@H]3N=C(c4ccccc4)c4cccc(F)c4NC3=O)c2O1 [Example 95, (5R)-2-Anilino-5-methyl-N-[(3S)-9-fluoro-2-oxo-5-phenyl-1,3-dihydro-1,4-benzodiazepin-3-yl]-6,7-dihydro-5H-pyrazolo[5,1-b][1,3]oxazine-3-carboxamide] | 0.357 | > 25 |
| CC1(Cn2cc(-c3nn4c(c3C(=O)N[C@H]3N=C(c5ccccc5)c5cccc(F)c5NC3=O)OCCC4)cn2)COC1 [Example 104, N-[(3S)-9-fluoro-2-oxo-5-phenyl-1,3-dihydro-1,4-benzodiazepin-3-yl]-2-[1-[(3-methyloxetan-3-yl)methyl]pyrazol-4-yl]-6,7-dihydro-5H-pyrazolo[5,1-b][1,3]oxazine-3-carboxamide] | 0.128 | > 25 |
| O=C(N[C@H]1N=C(c2ccccc2)c2cccc(F)c2NC1=O)c1c(-c2ccccc2F)nn2c1OCC1(CCC1)C2 [Example 185, 2-(2-Fluorophenyl)-N-[(3S)-9-fluoro-2-oxo-5-phenyl-1,3-dihydro-1,4-benzodiazepin-3-yl]spiro[5,7-dihydropyrazolo[5,1-b][1,3]oxazine-6,1′-cyclobutane]-3-carboxamide] | 0.032 | > 25 |
| CO[C@H]1CCN(c2ccc(-c3nn4c(c3C(=O)N[C@H]3N=C(c5ccccc5)c5cccc(F)c5NC3=O)O[C@H](C)CC4)cn2)C1 [Example 146, (5R)-N-[(3S)-9-fluoro-2-oxo-5-phenyl-1,3-dihydro-1,4-benzodiazepin-3-yl]-2-[6-[(3S)-3-methoxypyrrolidin-1-yl]pyridin-3-yl]-5-methyl-6,7-dihydro-5H-pyrazolo[5,1-b][1,3]oxazine-3-carboxamide] | 0.294 | > 25 |
| CS(=N)(=O)c1ccc(-c2nn3c(c2C(=O)N[C@H]2N=C(c4ccccc4)c4cccc(F)c4NC2=O)OCCC3)c(F)c1 (stereo partly drawn) [Example 143, 2-[2-Fluoro-4-(methylsulfonimidoyl)phenyl]-N-[(3S)-9-fluoro-2-oxo-5-phenyl-1,3-dihydro-1,4-benzodiazepin-3-yl]-6,7-dihydro-5H-pyrazolo[5,1-b][1,3]oxazine-3-carboxamide] | 0.149 | > 25 |
